Results published in PMC10388363, “Novel 1,4-Dihydropyridines as Specific Binders and Activators of SIRT3 Impair Cell Viability and Clonogenicity and Downregulate Hypoxia-Induced Targets in Cancer Cells” (Journal of Medicinal Chemistry, 2023).
Where two headings read alike, the source gives them in different places.

Experiments:
CAL-62 cells = assay: Cell viability / cell death, trypan blue exclusion, CAL-62; type: cell-based; details: for reduction of cell viability: CAL-62, 50 μM; for EC50: CAL-62, 48 h, read-out: EC50 cell death induction
Protocol: Afterward, the selected compounds 3a–d were assayed at 50 μM for 24 and 48 h in CAL-62 and MDA-MB-231 cells to assess their ability to impair the cell viability and colony formation in either normoxia or hypoxia-induced condition, the latter obtained by adding a 200 μM cobalt chloride solution, as described in previous reports[69] (Figure 8). Most cancer cells, mainly solid types, are known to have an altered metabolism due to hypoxia, a non-physiological level of oxygen tension, which contributes to therapy resistance by causing cellular quiescence.[70] Moreover, hypoxic cancer cells can induce several factors that lead to cell proliferation and colony formation.[71]
Breast cancer cell line MDA-MB-231, anaplastic thyroid cancer cell line CAL-62 and human keratinocytes HaCaT were purchased from ATCC and were cultured in RPMI 1640 medium (R0883 Sigma Aldrich-MERCK) (MDA-MB-231 and CAL-62) or DMEM medium (11965092, Gibco) supplemented with 10% fetal bovine serum (Sigma-Aldrich-MERCK, F9665), 2 mM glutamine (G7513; Sigma-Aldrich-MERCK), 100 units/mL penicillin and 0.1 mg/mL streptomycin (P0781; Sigma-Aldrich-MERCK). Adherent cells were detached by Trypsin–EDTA solution (TA049; Sigma-Aldrich-MERCK). Cells were maintained at 37 °C in humidified incubator with 5% CO2. Cells were treated with […] (CoCl2) (Merck; C8661) dissolved in distilled, sterile water for 24 h to induce hypoxia (200 μM). Hypoxic and normoxic cells were also treated with 10/50 μM of the indicated compounds (dissolved in DMSO) for 48 h, maintaining the CoCl2 in the culture medium for hypoxic conditions. SIRT3 inhibitor 3-TYP was dissolved in DMSO and added to a final concentration of 1 μM for 24 and/or 48 h.
Cell viability was assessed by the trypan blue exclusion assay. At the end of treatments, cells were harvested and stained with 0,4% trypan blue (Merck; T8154). The cell suspension was applied to a hemocytometer and counted with phase contrast microscopy (NIKON EclipseTE2000U, Nikon Netherlands, Amsterdam, The Netherlands).

human SIRT1 = molecular target: T1, human SIRT1 (Homo sapiens, UniProt Q96EB6); assay: PncA/GDH-coupled deacylation assay, SIRT1 activation (p53-acK381 substrate); type: biochemical; details: for effect on SIRT1: 10 μM compound; for SIRT1 activation: 100 μM compound
T1 construct: using constructs in pET15b (Sirt1); His tag (N, cleaved yes); made in house; host or cells: Escherichia coli
T1 sequence (Q96EB6 1-747): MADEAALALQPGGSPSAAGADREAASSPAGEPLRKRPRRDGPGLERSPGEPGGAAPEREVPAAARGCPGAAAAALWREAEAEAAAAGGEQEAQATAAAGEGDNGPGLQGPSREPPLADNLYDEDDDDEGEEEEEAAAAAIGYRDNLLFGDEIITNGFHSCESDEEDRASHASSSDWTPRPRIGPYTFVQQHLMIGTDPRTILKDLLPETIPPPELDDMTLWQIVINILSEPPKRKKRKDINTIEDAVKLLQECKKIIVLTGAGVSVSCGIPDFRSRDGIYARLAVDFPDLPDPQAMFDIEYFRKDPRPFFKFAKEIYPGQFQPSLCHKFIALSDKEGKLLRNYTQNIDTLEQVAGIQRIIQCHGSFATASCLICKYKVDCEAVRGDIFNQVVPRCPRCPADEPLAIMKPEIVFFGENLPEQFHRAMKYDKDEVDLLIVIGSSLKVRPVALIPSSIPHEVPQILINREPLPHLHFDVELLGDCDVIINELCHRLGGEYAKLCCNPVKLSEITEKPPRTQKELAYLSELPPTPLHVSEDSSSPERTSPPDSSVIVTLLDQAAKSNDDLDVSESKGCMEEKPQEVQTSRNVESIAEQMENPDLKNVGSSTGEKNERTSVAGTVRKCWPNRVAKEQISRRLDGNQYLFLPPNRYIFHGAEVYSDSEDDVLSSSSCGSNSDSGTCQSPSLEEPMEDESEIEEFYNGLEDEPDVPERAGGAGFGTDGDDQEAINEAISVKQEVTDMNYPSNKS
Protocol: To avoid artifacts and other non-specific effects, instead of the “Fluor-de-Lys” (FdL) substrate, we used a PncA/GDH-coupled deacylation assay by measuring the NADPH oxidation to NADP^+ that relies on isoform-specific non-modified physiological acetyl or succinyl substrates [p53-acK381 for SIRT1, α-tubulin-[…] for SIRT2, acetyl-CoA synthetase 2 (ACS2)-acK642 for SIRT3, and CPS1-succK537 for SIRT5].[59] The assays were carried out using the 1,4-DHP derivatives 2a–n and 3a–d against SIRT3, including the prototype compounds 2 and 3 as positive controls.
N-terminally his-tagged human sirtuins were expressed in Escherichia coli using constructs in pET15b (Sirt1) or pET151D/Topo (Sirt3-114-380 and Sirt5-34-302).[4],[59],[61] Sirt2-43-356 was expressed from a modified pET19b containing a TEV protease cleavage site and an N-terminal SUMO-tag.[59],[79] Proteins were expressed and purified as described elsewhere.[59],[61],[79]−[81] In brief, proteins were expressed in E. coli, crude extracts were cleared by centrifugation, and the proteins were affinity purified using NiNTA beads.
Sirtuin deacylation activities were analyzed by using a coupled enzymatic assay as described in.[59],[82] For initial modulation screenings, substrate peptide specificity analysis, and compound titrations, 1.5 μM sirtuin was incubated with 50 μM substrate peptide and 100 μM NAD^+ in absence or presence of 10 μM, 100 μM or the indicated concentration of 1,4-DHP at a final DMSO concentration of 5%. For kinetic experiments, 1.5 μM sirtuin was incubated with saturating concentrations of either substrate peptide (0.4 mM) or NAD^+ (2 mM), with the second substrate’s concentration being varied in absence or presence of 200 μM 1,4-DHP at a final concentration of 5% DMSO. Potential 1,4-DHP effects on the coupled enzymes GDH and nicotinamidase were tested in control assays containing 50 μM NAM instead of the substrate peptide.

effect on SIRT1 (human SIRT1) | SIRT1 activation (human SIRT1) | Compound | reduction of cell viability (CAL-62 cells; 24 h, normoxia) | reduction of cell viability (CAL-62 cells; 48 h, hypoxia (200 μM CoCl2)) | reduction of cell viability (CAL-62 cells; 48 h, normoxia) | Cell death (%) T48 (CAL-62 cells; CAL-62, 10 μM, 48 h) | EC50 (CAL-62 cells; Homo sapiens, hypoxia) | EC50 (CAL-62 cells; Homo sapiens, normoxia) | viability at 10 µM (CAL-62 cells; Homo sapiens, CAL-62, 10 μM, 24 h, read-out: Cell viability (%) T24)
negligible effects | 164% | CCOC(=O)C1=CN(C(=O)c2cccc(OC)c2)C=C(C(=O)OCC)C1c1ccccc1 [Compound 3a, Diethyl 1-(3-methoxybenzoyl)-4-phenyl-1,4-dihydropyridine-3,5-dicarboxylate] | 37% | 59% | 64% |  |  |  | 
negligible effects | 156% | CCOC(=O)C1=CN(C(=O)c2ccc(OC)c(OC)c2)C=C(C(=O)OCC)C1c1ccccc1 [Compound 3c, Diethyl 1-(3,4-dimethoxybenzoyl)-4-phenyl-1,4-dihydropyridine-3,5-dicarboxylate] |  |  |  |  |  |  | 

Compound | effect on SIRT1 (human SIRT1) | SIRT1 activation (human SIRT1) | reduction of cell viability (CAL-62 cells; 24 h, normoxia) | reduction of cell viability (CAL-62 cells; 48 h, hypoxia (200 μM CoCl2)) | reduction of cell viability (CAL-62 cells; 48 h, normoxia) | Cell death (%) T48 (CAL-62 cells; CAL-62, 10 μM, 48 h) | EC50 (CAL-62 cells; Homo sapiens, hypoxia) | EC50 (CAL-62 cells; Homo sapiens, normoxia) | viability at 10 µM (CAL-62 cells; Homo sapiens, CAL-62, 10 μM, 24 h, read-out: Cell viability (%) T24)
CCOC(=O)C1=CN(C(=O)c2cc(OC)cc(OC)c2)C=C(C(=O)OCC)C1c1ccccc1 [Compound 3d, Diethyl 1-(3,5-dimethoxybenzoyl)-4-phenyl-1,4-dihydropyridine-3,5-dicarboxylate] | negligible effects | 130% | 55% | 80% | 90% | 36,6% | ~3.5 µM | ~16.7 µM | 79.6%
